# From ChEMBL document CHEMBL1129764, “Synthesis of N-kojic-amino acid and N-kojic-amino acid-kojiate and their tyrosinase inhibitory activity” (Bioorg Med Chem Lett, 1996)
# Target: T1, Tyrosinase (Homo sapiens, UniProt P14679)
# T1 sequence (P14679 whole entry): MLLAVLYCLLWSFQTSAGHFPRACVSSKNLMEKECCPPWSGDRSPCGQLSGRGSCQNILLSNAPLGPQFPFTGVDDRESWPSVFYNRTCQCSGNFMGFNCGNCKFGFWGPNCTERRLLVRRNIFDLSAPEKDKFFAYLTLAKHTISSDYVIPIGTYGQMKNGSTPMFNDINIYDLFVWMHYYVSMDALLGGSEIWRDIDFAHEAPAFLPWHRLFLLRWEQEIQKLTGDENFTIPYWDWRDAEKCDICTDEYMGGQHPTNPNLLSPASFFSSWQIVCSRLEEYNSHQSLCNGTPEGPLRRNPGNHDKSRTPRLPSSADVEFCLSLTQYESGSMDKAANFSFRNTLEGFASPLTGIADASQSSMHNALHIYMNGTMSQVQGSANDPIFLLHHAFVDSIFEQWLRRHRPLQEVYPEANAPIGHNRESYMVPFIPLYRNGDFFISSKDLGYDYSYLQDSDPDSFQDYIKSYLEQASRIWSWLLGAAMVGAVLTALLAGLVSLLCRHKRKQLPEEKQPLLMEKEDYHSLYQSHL
# Experiment: Compound was evaluated for inhibition of tyrosinase enzyme; Not active; call rule not given here
# Parameters: species or system mushroom
structure (smiles),measurement,value
N[C@@H](Cc1ccccc1)C(=O)O [PHENYLALANINE],IC50,Not Active
